Experimental data reported in PubChem BioAssay (NCI).
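Results reflect a 48-hour exposure of cells in 96-well plates to compound at five concentrations. GI50 = concentration required for 50% inhibition of growth. TGI denotes the concentration required for complete inhibition of growth.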

Assays:
Test in all cases: NCI anticancer screen, dose series, 48 h
786-0 renal = test system: 786-0 renal
A498 renal = test system: A498 renal
A549 NSCLC = test system: A549 NSCLC
ACHN renal = test system: ACHN renal
BT-549 breast = test system: BT-549 breast
CAKI-1 renal = test system: CAKI-1 renal
CCRF-CEM leukemia = test system: CCRF-CEM leukemia
COLO 205 colon = test system: COLO 205 colon
DU-145 prostate = test system: DU-145 prostate
EKVX NSCLC = test system: EKVX NSCLC
HCC-2998 colon = test system: HCC-2998 colon
HCT-116 colon = test system: HCT-116 colon
HCT-15 colon = test system: HCT-15 colon
HL-60(TB) leukemia = test system: HL-60(TB) leukemia
HOP-62 NSCLC = test system: HOP-62 NSCLC
HOP-92 NSCLC = test system: HOP-92 NSCLC
HS 578T breast = test system: HS 578T breast
HT29 colon = test system: HT29 colon
IGROV1 ovarian = test system: IGROV1 ovarian
K-562 leukemia = test system: K-562 leukemia
KM12 colon = test system: KM12 colon
LOX IMVI melanoma = test system: LOX IMVI melanoma
M14 melanoma = test system: M14 melanoma
MALME-3M melanoma = test system: MALME-3M melanoma
MCF7 breast = test system: MCF7 breast
MDA-MB-231 breast = test system: MDA-MB-231 breast
MDA-MB-435 = test system: MDA-MB-435
MOLT-4 leukemia = test system: MOLT-4 leukemia
NCI-H226 lung = test system: NCI-H226 lung
NCI-H23 lung = test system: NCI-H23 lung
NCI-H460 lung = test system: NCI-H460 lung
NCI-H522 lung = test system: NCI-H522 lung
NCI/ADR-RES ovarian = test system: NCI/ADR-RES ovarian
OVCAR-3 ovarian = test system: OVCAR-3 ovarian
OVCAR-4 ovarian = test system: OVCAR-4 ovarian
OVCAR-5 ovarian = test system: OVCAR-5 ovarian
OVCAR-8 ovarian = test system: OVCAR-8 ovarian
PC-3 prostate = test system: PC-3 prostate
RPMI-8226 leukemia = test system: RPMI-8226 leukemia
RXF 393 renal = test system: RXF 393 renal
SF-268 CNS = test system: SF-268 CNS
SF-295 CNS = test system: SF-295 CNS
SF-539 CNS = test system: SF-539 CNS
SK-MEL-2 melanoma = test system: SK-MEL-2 melanoma
SK-MEL-28 melanoma = test system: SK-MEL-28 melanoma
SK-MEL-5 melanoma = test system: SK-MEL-5 melanoma
SK-OV-3 ovarian = test system: SK-OV-3 ovarian
SN12C renal = test system: SN12C renal
SNB-19 CNS = test system: SNB-19 CNS
SNB-75 CNS = test system: SNB-75 CNS
SR leukemia = test system: SR leukemia
SW-620 colon = test system: SW-620 colon
T-47D breast = test system: T-47D breast
TK-10 renal = test system: TK-10 renal
U251 CNS = test system: U251 CNS
UACC-257 melanoma = test system: UACC-257 melanoma
UO-31 renal = test system: UO-31 renal

Compound `CCOC(=O)c1cnc2c(C)cc(C)cc2c1NCCCN(C)C` has a GI50 (786-0 renal) of 4.91 µM, a TGI (786-0 renal) of 25.7 µM and a GI50 (A498 renal) of 2.85 µM. For the same compound, the TGI (A498 renal) was 14.9 µM, the GI50 (A549 NSCLC) was 5.29 µM and the TGI (A549 NSCLC) was > 100 µM. The GI50 (ACHN renal) was 3.09 µM, the TGI (ACHN renal) was 40.4 µM and the GI50 (BT-549 breast) was 11.5 µM. For the same compound, the TGI (BT-549 breast) was 39.9 µM, the GI50 (CAKI-1 renal) was 3.9 µM and the TGI (CAKI-1 renal) was > 100 µM. For the same compound, the GI50 (CCRF-CEM leukemia) was 13.6 µM, the TGI (CCRF-CEM leukemia) was 62.7 µM and the GI50 (COLO 205 colon) was 1.58 µM. For the same compound, the TGI (COLO 205 colon) was 3.55 µM, the GI50 (DU-145 prostate) was 3.8 µM and the TGI (DU-145 prostate) was 55.8 µM. The GI50 (EKVX NSCLC) was 4.22 µM, the TGI (EKVX NSCLC) was 35.6 µM and the GI50 (HCC-2998 colon) was 5.35 µM. It also gave a TGI (HCC-2998 colon) of 19.6 µM, a GI50 (HCT-116 colon) of 2.74 µM and a TGI (HCT-116 colon) of 21.4 µM. For the same compound, the GI50 (HCT-15 colon) was 3.69 µM, the TGI (HCT-15 colon) was 51.7 µM and the GI50 (HL-60(TB) leukemia) was 5.6 µM. The TGI (HL-60(TB) leukemia) was 57.1 µM, the GI50 (HOP-62 NSCLC) was 4.66 µM and the TGI (HOP-62 NSCLC) was 44.2 µM. It also gave a GI50 (HOP-92 NSCLC) of 2.08 µM, a TGI (HOP-92 NSCLC) of 12.5 µM and a GI50 (HS 578T breast) of 4.37 µM. It also gave a TGI (HS 578T breast) of 28.3 µM, a GI50 (HT29 colon) of 1.53 µM and a TGI (HT29 colon) of 3.85 µM. For the same compound, the GI50 (IGROV1 ovarian) was 4.98 µM, the TGI (IGROV1 ovarian) was > 100 µM and the GI50 (K-562 leukemia) was 4.81 µM. The TGI (K-562 leukemia) was 35.2 µM, the GI50 (KM12 colon) was 4.15 µM and the TGI (KM12 colon) was 27.2 µM. The GI50 (LOX IMVI melanoma) was 2.83 µM, the TGI (LOX IMVI melanoma) was 13.6 µM and the GI50 (M14 melanoma) was 4.67 µM. For the same compound, the TGI (M14 melanoma) was 17.5 µM, the GI50 (MALME-3M melanoma) was 5.84 µM and the TGI (MALME-3M melanoma) was 21.7 µM. The GI50 (MCF7 breast) was 2.78 µM, the TGI (MCF7 breast) was 15.7 µM and the GI50 (MDA-MB-231 breast) was 3.1 µM. For the same compound, the TGI (MDA-MB-231 breast) was 20.4 µM, the GI50 (MDA-MB-435) was 4.09 µM and the TGI (MDA-MB-435) was 18.1 µM. For the same compound, the GI50 (MOLT-4 leukemia) was 4.58 µM, the TGI (MOLT-4 leukemia) was 33.7 µM and the GI50 (NCI-H226 lung) was 4.12 µM. It also gave a TGI (NCI-H226 lung) of 26.8 µM, a GI50 (NCI-H23 lung) of 4.29 µM and a TGI (NCI-H23 lung) of 21.4 µM. For the same compound, the GI50 (NCI-H460 lung) was 2.57 µM, the TGI (NCI-H460 lung) was 9.14 µM and the GI50 (NCI-H522 lung) was 11.2 µM. It also gave a TGI (NCI-H522 lung) of 35 µM, a GI50 (NCI/ADR-RES ovarian) of 3.57 µM and a TGI (NCI/ADR-RES ovarian) of 78.3 µM. It also gave a GI50 (OVCAR-3 ovarian) of 3.62 µM, a TGI (OVCAR-3 ovarian) of 27.5 µM and a GI50 (OVCAR-4 ovarian) of 3.25 µM. The TGI (OVCAR-4 ovarian) was 14 µM, the GI50 (OVCAR-5 ovarian) was 4.53 µM and the TGI (OVCAR-5 ovarian) was 46.1 µM. The GI50 (OVCAR-8 ovarian) was 5.67 µM, the TGI (OVCAR-8 ovarian) was > 100 µM and the GI50 (PC-3 prostate) was 4.08 µM. It also gave a TGI (PC-3 prostate) of 85.1 µM, a GI50 (RPMI-8226 leukemia) of 17 µM and a TGI (RPMI-8226 leukemia) of 46.5 µM. The GI50 (RXF 393 renal) was 5.86 µM, the TGI (RXF 393 renal) was 25 µM and the GI50 (SF-268 CNS) was 3.91 µM. It also gave a TGI (SF-268 CNS) of 23.9 µM, a GI50 (SF-295 CNS) of 3.3 µM and a TGI (SF-295 CNS) of 37.2 µM. For the same compound, the GI50 (SF-539 CNS) was 3.48 µM, the TGI (SF-539 CNS) was 14 µM and the GI50 (SK-MEL-2 melanoma) was 9.7 µM. The TGI (SK-MEL-2 melanoma) was 31.7 µM, the GI50 (SK-MEL-28 melanoma) was 13 µM and the TGI (SK-MEL-28 melanoma) was 26.1 µM. For the same compound, the GI50 (SK-MEL-5 melanoma) was 4.38 µM, the TGI (SK-MEL-5 melanoma) was 16.5 µM and the GI50 (SK-OV-3 ovarian) was 3.98 µM. For the same compound, the TGI (SK-OV-3 ovarian) was 32.4 µM, the GI50 (SN12C renal) was 3.82 µM and the TGI (SN12C renal) was > 100 µM. It also gave a GI50 (SNB-19 CNS) of 5.27 µM, a TGI (SNB-19 CNS) of 60.1 µM and a GI50 (SNB-75 CNS) of 2.74 µM. For the same compound, the TGI (SNB-75 CNS) was 17.4 µM, the GI50 (SR leukemia) was 2.52 µM and the TGI (SR leukemia) was 8.21 µM. For the same compound, the GI50 (SW-620 colon) was 3.43 µM, the TGI (SW-620 colon) was 41.7 µM and the GI50 (T-47D breast) was 4.73 µM. The TGI (T-47D breast) was 29.4 µM, the GI50 (TK-10 renal) was 3.91 µM and the TGI (TK-10 renal) was 88 µM. It also gave a GI50 (U251 CNS) of 4.66 µM, a TGI (U251 CNS) of 76.2 µM and a GI50 (UACC-257 melanoma) of 10.2 µM. The TGI (UACC-257 melanoma) was 26.2 µM, the GI50 (UO-31 renal) was 2.87 µM and the TGI (UO-31 renal) was > 100 µM.
